Converted amounts (≈) assume the structure as drawn.
Tests used:
[1] = test system: M. tuberculosis H37Rv; assay: Microplate Alamar Blue MIC assay, M. tuberculosis H37Rv; assay type: cell-based; conditions: Mycobacterium tuberculosis, read-out: antibacterial activity M. tuberculosis H37Rv MIC
[2] = test system: M. avium ATCC 25291; assay: Microplate Alamar Blue MIC assay, M. avium; assay type: cell-based, Mycobacterium avium

SMILES	MIC [1]	antibacterial activity M. avium ATCC 25291 [2]
CO[C@H]1/C=C/O[C@@]2(C)Oc3c(C)c(O)c4c(O)c(c(/C=N/N5CCN(c6ccc(F)cc6NC(=O)C(Cc6ccccc6)NC(=O)c6ccccc6F)CC5)c(O)c4c3C2=O)NC(=O)/C(C)=C\C=C\[C@H](C)[C@H](O)[C@@H](C)[C@@H](O)[C@@H](C)[C@H](OC(C)=O)[C@@H]1C (some centres unmarked) [IX-398, Rifamycin SV—(CHN)—IX-214 Conjugate]	0.39 µg/mL (≈ 0.328 µM)	0.098
CO[C@H]1/C=C/O[C@@]2(C)Oc3c(C)c(O)c4c(O)c(c(/C=N/N5CCN(CCN6CCN(c7ccc(F)cc7NC(=O)C(Cc7ccccc7)NC(=O)c7ccccc7F)CC6)CC5)c(O)c4c3C2=O)NC(=O)/C(C)=C\C=C\[C@H](C)[C@H](O)[C@@H](C)[C@@H](O)[C@@H](C)[C@H](OC(C)=O)[C@@H]1C (some centres unmarked) [IX-403, Rifamycin SV—(CHN)—IX-402 Conjugate]	3.13 µg/mL (≈ 2.41 µM)	3.13
[2H]C([2H])(c1ccccc1)C(NC(=O)c1ccccc1F)C(=O)Nc1cc(F)ccc1N1CCN(/N=C/c2c3c(O)c4c(O)c(C)c5c(c4c2O)C(=O)[C@@](C)(O/C=C/[C@H](OC)[C@@H](C)[C@@H](OC(C)=O)[C@H](C)[C@H](O)[C@H](C)[C@@H](O)[C@@H](C)/C=C/C=C(/C)C(=O)N3)O5)CC1 (some centres unmarked) [IX-404a, Rifamycin SV—(CHN)—IX-370a Conjugate]	0.049 µg/mL (≈ 0.0412 µM)	0.048
[2H]C([2H])(c1ccccc1)C(NC(=O)c1ccccc1F)C(=O)Nc1cc(F)ccc1N1CCN(C(=O)COc2cc3c(O)c4c(O)c(C)c5c(c24)C(=O)[C@@](C)(O/C=C/[C@H](OC)[C@@H](C)[C@@H](OC(C)=O)[C@H](C)[C@H](O)[C@H](C)[C@@H](O)[C@@H](C)/C=C/C=C(/C)C(=O)N3)O5)CC1 (some centres unmarked) [IX-408a, Rifamycin B—IX-370a Conjugate]	0.2 µg/mL (≈ 0.166 µM)	0.78
[2H]C([2H])(c1ccccc1)C(NC(=O)c1ccccc1F)C(=O)Nc1cc(F)ccc1N1CCN(/N=C/C2=C3NC(=O)/C(C)=C\C=C\[C@H](C)[C@H](O)[C@@H](C)[C@@H](O)[C@@H](C)[C@H](OC(C)=O)[C@H](C)[C@@H](OC)/C=C/O[C@@]4(C)Oc5c(C)c(O)c(c(c5C4=O)C2=O)C3=O)CC1 (some centres unmarked) [IX-476a, Rifamycin S—(CHN)—IX-370a Conjugate]	0.2 µg/mL (≈ 0.168 µM)	
CO[C@H]1/C=C/O[C@@]2(C)Oc3c(C)c(O)c4c(O)c(c(/C=N/N5CCN(C)CC5)c(O)c4c3C2=O)NC(=O)/C(C)=C\C=C\[C@H](C)[C@H](O)[C@@H](C)[C@@H](O)[C@@H](C)[C@H](OC(C)=O)[C@@H]1C [rifampin, reference compound]	0.049 µg/mL (≈ 0.0595 µM)	0.024

Reference: US11447502B2, “Antibacterial agents: dual-targeted RNA polymerase inhibitors” (priority 2018, dated 2022)
